Common to all, as to type: biochemical
One experiment addresses T1, Aurora B (Homo sapiens, UniProt Q96GD4).
T1 construct: Active Aurora B enzyme (recombinant residues 1-344)
Kind of experiment: Aurora B enzyme inhibition (time-resolved fluorescence, histone H3 peptide). Particulars: 1 mM ATP. Here is the method: To determine Aurora B activity of representative compounds of the invention, Active Aurora B enzyme (recombinant residues 1-344) and INCENP (recombinant GST fusion protein (Upstate)) were incubated in wells of a 384 well plate with biotinylated histone H3 peptide residues 1-21 (Upstate), 1 mM ATP, and various concentrations of inhibitors in a HEPES buffer, pH 7.4 containing MgCl2, sodium othrovanadate, and Triton X-100. After 1 hour, the reaction was stopped with EDTA and anti-phospho-histone H3 Europium Cryptate (Cis-Bio) and SA-APC (Phycolink, Prozyme) were added to detect the phosphopeptide. The amount of phosphorylation was determined by the time-resolved fluorescence ratio of signals at 665 nm and 615 nm. The IC50's were calculated by an exponential fit of the inhibition values with the inhibitor concentrations using Assay Explorer software.

A further experiment deals with KDR (Homo sapiens, UniProt P35968). Put plainly: KDR HTRF in vitro kinase assay. Conditions: 1 mM ATP; read-out: KDR enzyme inhibition data (Ki). Details: purified enzyme (His6-KDR 789-1354, MW 63 kD); His6 (N). As for the experimental part:
To determine the activity of the various kinases, a homogenous time-resolved fluorescence (HTRF) in vitro kinase assay was used. (Mathis, G., HTRF® Technology. J Biomol Screen, 1999. 4(6): p. 309-314; Alfred J. Kolb, Paul V. Kaplita, David J. Hayes, Young-Whan Park, Christine Pernell, John S. Major and Gerard Mathis, Drug Discovery Today, 1998, 3, 333-342.)
For example for KDR, 7 ng/well of purified enzyme (His6-KDR 789-1354, MW 63 kD) was mixed with 0.5 μM N-biotinylated substrate (Biotin-Ahx-AEEEYFFLA-amide (SEQ. ID. 1)), various concentrations of inhibitor in reaction buffer (50 mM HEPES, pH 7.1, 10 mM MgCl2, 2 mM MnCl2, 0.1% BSA and 1 mM DTT, 40 L final volume), ATP (1 mM final conc.) in a black 384-well plate. After 60 minutes incubation at room temperature, the reaction was quenched by addition of a buffered EDTA solution (final approximate concentrations: 30 mM EDTA, 0.1% BSA, 0.1% Triton X-100 and 0.24M KF) and a solution of revelation agents (to give 0.084 ng/well streptavidin-XL-665 (Cis-Bio) and 6.5 ng/well antiphsophotyrosine mAb PT66-K Europium kryptate) was added to the reaction mixture. The quenched reaction was allowed to stand at room temperature for 3 hours and was then read in a time-resolved fluorescence detector (InVision, Perkin-Elmer) at 620 nm and 665 nm sequentially with excitation. The ratio between the signal of 620 nm and 665 nm was used in the calculation of the IC50.

A further experiment addresses T2, Aurora A (Homo sapiens, UniProt O14965).
T2 sequence (O14965 1-403): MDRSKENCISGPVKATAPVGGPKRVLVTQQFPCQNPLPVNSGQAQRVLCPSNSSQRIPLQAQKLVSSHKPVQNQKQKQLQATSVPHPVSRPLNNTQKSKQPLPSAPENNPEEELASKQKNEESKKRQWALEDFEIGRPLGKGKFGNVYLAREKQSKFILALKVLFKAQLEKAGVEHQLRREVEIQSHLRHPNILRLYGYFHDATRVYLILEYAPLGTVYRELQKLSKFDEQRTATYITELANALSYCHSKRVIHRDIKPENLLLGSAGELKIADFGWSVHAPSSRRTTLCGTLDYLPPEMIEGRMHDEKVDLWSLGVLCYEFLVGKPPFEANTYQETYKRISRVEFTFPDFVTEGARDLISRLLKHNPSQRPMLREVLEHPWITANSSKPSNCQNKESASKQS
Kind of experiment: Aurora A enzyme inhibition (time-resolved fluorescence, STK substrate-2). Particulars: 1 mM ATP. As for the experimental part: To determine Aurora A and C activity of representative compounds of the invention, Active Aurora A or C enzyme was incubated in wells of a 384 well plate with biotinylated STK substrate-2 (Upstate), 1 mM ATP, and various concentrations of inhibitors in a Hepes buffer, pH 7.4 containing MgCl2, sodium othrovanadate, and Triton X-100. After 1 hour, the reaction was stopped with EDTA and anti-phospho-STK antibody Europium Cryptate (Upstate) and SA-XL665 (Upstate) were added to detect the phosphopeptide. The amount of phosphorylation was determined by the time-resolved fluorescence ratio of signals at 665 nm and 615 nm. The IC50s were calculated by an exponential fit of the inhibition values with the inhibitor concentrations using Assay Explorer software.

Sequence of KDR (P35968 789-1354): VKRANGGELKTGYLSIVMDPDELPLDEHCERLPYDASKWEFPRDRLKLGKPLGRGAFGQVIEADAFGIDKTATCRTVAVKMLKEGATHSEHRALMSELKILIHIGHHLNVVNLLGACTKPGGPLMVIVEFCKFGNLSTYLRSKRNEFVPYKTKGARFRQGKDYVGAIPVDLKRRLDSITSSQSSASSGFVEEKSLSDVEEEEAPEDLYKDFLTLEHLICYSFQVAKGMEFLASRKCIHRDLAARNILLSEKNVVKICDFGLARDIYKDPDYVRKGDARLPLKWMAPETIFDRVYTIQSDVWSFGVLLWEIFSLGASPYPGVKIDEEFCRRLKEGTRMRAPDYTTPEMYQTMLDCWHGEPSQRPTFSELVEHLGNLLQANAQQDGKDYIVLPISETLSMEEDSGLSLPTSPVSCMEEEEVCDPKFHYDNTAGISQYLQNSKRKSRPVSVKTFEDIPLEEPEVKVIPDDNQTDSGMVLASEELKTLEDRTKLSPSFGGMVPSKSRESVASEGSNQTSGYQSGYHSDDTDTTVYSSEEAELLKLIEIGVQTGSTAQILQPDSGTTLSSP
T1 sequence (Q96GD4 whole entry, the tested form may be a part): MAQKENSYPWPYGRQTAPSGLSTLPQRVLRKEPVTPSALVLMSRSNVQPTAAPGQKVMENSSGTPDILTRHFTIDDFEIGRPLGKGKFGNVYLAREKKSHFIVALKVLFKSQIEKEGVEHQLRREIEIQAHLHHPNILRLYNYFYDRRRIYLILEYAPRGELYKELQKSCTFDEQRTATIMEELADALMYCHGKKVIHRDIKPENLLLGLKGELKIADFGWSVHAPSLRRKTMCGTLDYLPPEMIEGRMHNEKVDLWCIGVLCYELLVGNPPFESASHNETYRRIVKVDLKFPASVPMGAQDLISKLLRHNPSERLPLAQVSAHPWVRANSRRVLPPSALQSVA
T1 sequence (Q9NQS7 826-918 partner limits assumed): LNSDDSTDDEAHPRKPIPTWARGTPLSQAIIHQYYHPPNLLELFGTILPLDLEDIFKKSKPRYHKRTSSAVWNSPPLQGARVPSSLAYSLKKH

On to `CNC(=O)[C@@H]1[C@H](Nc2nc(Nc3cnn(C)c3)ncc2C(F)(F)F)[C@H]2C=C[C@@H]1C2.CNC(=O)[C@H]1[C@@H](Nc2nc(Nc3cnn(C)c3)ncc2C(F)(F)F)[C@@H]2C=C[C@H]1C2` (mixture of isomers) [Example 47, (1S,2S,3R,4R)—N-methyl-3-{[2-[(1-methyl-1H-pyrazol-4-yl)amino]-5-(trifluoromethyl)pyrimidin-4-yl]amino}bicyclo[2.2.1]hept-5-ene-2-carboxamide and (1R,2R,3S,4S)—N-methyl-3-{[2-[(1-methyl-1H-pyrazol-4-yl)amino]-5-(trifluoromethyl)pyrimidin-4-yl]amino}bicyclo[2.2.1]hept-5-ene-2-carboxamide], for which the Ki on Aurora B, at KDR and on Aurora A was less than 100 nM each time.
`CCn1cc(Nc2ncc(OC)c(NC3C4C=CC(C4)C3C(N)=O)n2)cn1` (mixture of isomers) [Example 53, (1S,2S,3R,4R)-3-({2-[(1-ethyl-1H-pyrazol-4-yl)amino]-5-methoxypyrimidin-4-yl}amino)bicyclo[2.2.1]hept-5-ene-2-carboxamide and (1R,2R,3S,4S)-3-({2-[(1-ethyl-1H-pyrazol-4-yl)amino]-5-methoxypyrimidin-4-yl}amino)bicyclo[2.2.1]hept-5-ene-2-carboxamide]: the Ki on Aurora B, on KDR and at Aurora A was less than 100 nM each time.
“(1S,2S,3R,4R)-3-{[5-chloro-2-({1-[2-(4-methylpiperazin-1-yl)ethyl]-1H-pyrazol-4-yl}amino)pyrimidin-4-yl]amino}bicyclo[2.2.1]hept-5-ene-2-carboxamide and (1R,2R,3S,4S)-3-{[5-chloro-2-({1-[2-(4-methylpiperazin-1-yl)ethyl]-1H-pyrazol-4-yl}amino)pyrimidin-4-yl]amino}bicyclo[2.2.1]hept-5-ene-2-carboxamide [Example 46]”: the Ki at Aurora B, on KDR and on Aurora A was less than 100 nM each time.
In the case of `CNC(=O)Cn1cc(Nc2ncc(Cl)c(N[C@H]3[C@@H](C(N)=O)[C@@H]4C=C[C@H]3C4)n2)cn1` [Example 75, (1S,2S,3R,4R)-3-{[5-chloro-2-({1-[2-(methylamino)-2-oxoethyl]-1H-pyrazol-4-yl}amino)pyrimidin-4-yl]amino}bicyclo[2.2.1]hept-5-ene-2-carboxamide], the Ki at Aurora B, at KDR and at Aurora A was less than 100 nM each time.
Consider `NC(=O)[C@@H]1[C@H](Nc2nc(Nc3cnn(CCN4CCCC4)c3)ncc2Cl)[C@H]2C=C[C@@H]1C2` (racemic) [Example 34, (1S,2S,3R,4R)-3-[(5-chloro-2-{[1-(2-pyrrolidin-1-ylethyl)-1H-pyrazol-4-yl]amino}pyrimidin-4-yl)amino]bicyclo[2.2.1]hept-5-ene-2-carboxamide and (1R,2R,3S,4S)-3-[(5-chloro-2-{[1-(2-pyrrolidin-1-ylethyl)-1H-pyrazol-4-yl]amino}pyrimidin-4-yl)amino]bicyclo[2.2.1]hept-5-ene-2-carboxamide], for which the Ki at Aurora B, on KDR and at Aurora A was less than 100 nM throughout.
`C[C@@H](O)Cn1cc(Nc2ncc(C(F)(F)F)c(N[C@H]3[C@@H](C(N)=O)[C@@H]4C=C[C@H]3C4)n2)cn1` [Example 69, (1S,2S,3R,4R)-3-{[2-({1-[(2R)-2-hydroxypropyl]-1H-pyrazol-4-yl}amino)-5-(trifluoromethyl)pyrimidin-4-yl]amino}bicyclo[2.2.1]hept-5-ene-2-carboxamide]: the inhibitory constant (Ki) at Aurora B, on KDR and at Aurora A was less than 100 nM throughout.
For `NC(=O)[C@@H]1[C@H](Nc2nc(Nc3cnn(CC(F)(F)F)c3)ncc2Cl)[C@H]2C=C[C@@H]1C2` [Example 66, (1S,2S,3R,4R)-3-[(5-chloro-2-{[1-(2,2,2-trifluoroethyl)-1H-pyrazol-4-yl]amino}pyrimidin-4-yl)amino]bicyclo[2.2.1]hept-5-ene-2-carboxamide], the inhibition constant Ki on Aurora B, at KDR and on Aurora A was less than 100 nM in each case.
On to `NC(=O)[C@@H]1[C@H](Nc2nc(Nc3cnn(CCO)c3)ncc2Cl)[C@H]2C=C[C@@H]1C2` [Example 65, (1S,2S,3R,4R)-3-[(5-chloro-2-{[1-(2-hydroxyethyl)-1H-pyrazol-4-yl]amino}pyrimidin-4-yl)amino]bicyclo[2.2.1]hept-5-ene-2-carboxamide], for which the Ki at Aurora B, at KDR and on Aurora A was less than 100 nM in each case.
On to “5-chloro-N^2-(1H-indazol-5-yl)-N^2-{1-[2-(pyrrolidin-1-yl)ethyl]-1H-pyrazol-4-yl}pyrimidine-2,4-diamine [Example 177]”, for which the Ki at Aurora B, on KDR and at Aurora A was less than 100 nM throughout.
Turning to `CCOC(=O)[C@@H]1[C@H](Nc2nc(Nc3cnn(C)c3)ncc2F)[C@H]2C=C[C@@H]1C2.CCOC(=O)[C@H]1[C@@H](Nc2nc(Nc3cnn(C)c3)ncc2F)[C@@H]2C=C[C@H]1C2` (mixture of isomers) [Example 7, ethyl(1S,2S,3R,4R)-3-({5-fluoro-2-[(1-methyl-1H-pyrazol-4-yl)amino]pyrimidin-4-yl}amino)bicyclo[2.2.1]hept-5-ene-2-carboxylate and ethyl(1R,2R,3S,4S)-3-({5-fluoro-2-[(1-methyl-1H-pyrazol-4-yl)amino]pyrimidin-4-yl}amino)bicyclo[2.2.1]hept-5-ene-2-carboxylate], the Ki at Aurora B was 100 to 1000 nM; at KDR, more than 5000 nM; on Aurora A, more than 5000 nM.
As to `NC(=O)[C@@H]1[C@H](Nc2nc(Nc3cnn(CCO)c3)ncc2C(F)(F)F)[C@H]2C=C[C@@H]1C2` [Example 63, (1S,2S,3R,4R)-3-{[2-{[1-(2-hydroxyethyl)-1H-pyrazol-4-yl]amino}-5-(trifluoromethyl)pyrimidin-4-yl]amino}bicyclo[2.2.1]hept-5-ene-2-carboxamide], the inhibition constant (Ki) at Aurora B, at KDR and at Aurora A was less than 100 nM throughout.
On to `CNC(=O)[C@@H]1[C@H](Nc2nc(Nc3cnn(C)c3)ncc2Br)[C@H]2C=C[C@@H]1C2.CNC(=O)[C@H]1[C@@H](Nc2nc(Nc3cnn(C)c3)ncc2Br)[C@@H]2C=C[C@H]1C2` (mixture of isomers) [Example 48, (1S,2S,3R,4R)-3-({5-bromo-2-[(1-methyl-1H-pyrazol-4-yl)amino]pyrimidin-4-yl}amino)-N-methylbicyclo[2.2.1]hept-5-ene-2-carboxamide and (1R,2R,3S,4S)-3-({5-bromo-2-[(1-methyl-1H-pyrazol-4-yl)amino]pyrimidin-4-yl}amino)-N-methylbicyclo[2.2.1]hept-5-ene-2-carboxamide], for which the Ki at Aurora B, at KDR and at Aurora A was less than 100 nM in each case.

The record behind these values is patent US8426408B2, “Pyrimidine inhibitors of kinases” (AbbVie Inc., priority 2009, dated 2013).
